The text below walks through data of patent US4705900A, “Insecticidal alkenes” (Imperial Chemical Industries PLC, priority 1985, dated 1987).

Bounds are passed on as bounds.

What is called mortality is the percentage killed.

One experiment has as its system Nilaparvata lugens. Description: mortality of green leaf hopper (NL), contact test. In kind it is in vivo, Nilaparvata lugens (brown planthopper). Particulars: Nilaparvata lugens, in Brassica oleracea, 144 h, cabbage leaf, 6 days, read-out: grading of mortality, NL. As for the experimental part:
(§1) The activity of the Product was determined using a variety of insect pests. The Product was used in the form of liquid preparations containing 500 or 100 parts per million (ppm) by weight of the Product. The preparations were made by dissolving the Product in acetone and diluting the solutions with water containing 0.01% by weight of a wetting agent sold under the trade name "LISSAPOL" NX until the liquid preparations contained the required concentration of the Product. "Lissapol" is a Registered Trade Mark.
(§2) The test procedure adopted with regard to each pest was basically the same and comprised supporting a number of the pests on a medium which was usually a host plant or a foodstuff on which the pests feed, and treating either or both the pests and the medium with the preparations. The mortality of the pests was then assessed at periods usually varying from one to three days after the treatment.
(§3) The results of the tests are given in Table IV for each of the Products, at the rate in parts per million given in the second column as a grading of mortality designated as A, B or C wherein A indicates 80-100% mortality or knockdown, B indicates 50-79% mortality or knockdown and C indicates less than 50% mortality or knockdown.
(§4) In Table IV the pest organism used is designated by a letter code and the pests species, the support medium or food, and the type and duration of test is given in Table III.

For experiment [1], the system named is Musca domestica. Kind of experiment: mortality of houseflies (MD), contact test. In kind it is in vivo, Musca domestica (houseflies - adults). Conditions: Musca domestica, 24 h, cotton wool/sugar, 1 day, read-out: grading of mortality, MD. As for the experimental part:
as §1, §2, §3, §4

For the next experiment, the system named is Blattella germanica. Kind of experiment: mortality of cockroach nymphs (BG), residual test. Conditions: Blattella germanica, 72 h, plastic pot, 3 days, read-out: grading of mortality, BG. In kind it is in vivo, Blattella germanica (cockroach nymphs). As for the experimental part:
as §1, §2, §3, §4

Another experiment has as its system Diabrotica balteata. Kind of experiment: mortality of rootworm larvae (DB), residual test. In kind it is in vivo, Diabrotica balteata (rootworm larvae). Particulars: Diabrotica balteata, in Zea mays, 72 h, filter paper/maize seed, 3 days, read-out: grading of mortality, DB. Here is the method: as §1, §2, §3, §4
Another experiment has as its system Heliothis viriscens. Kind of experiment: whole plant or invertebrate. In kind it is in vivo, Heliothis viriscens (tobacco budworm). Conditions: in Gossypium hirsutum, 72 h, read-out: grading of mortality, HV. Here is the method: as §1, §2, §3, §4
For experiment [2], the system named is Musca domestica. Description: knockdown of houseflies (MD/KD). In kind it is in vivo, Musca domestica (houseflies - adults). Conditions: Musca domestica, cotton wool/sugar, 4 hours, read-out: grading of knockdown, MD/KD. As for the experimental part:
as §1, §2
In case of the species Musca domestica (housefly), additional tests to determine the knockdown effect of the compounds were performed.
as §3, §4

Another experiment has as its system Myzus persicae. Description: mortality of aphids (MP), contact test. In kind it is in vivo, Myzus persicae (aphids). Conditions: Myzus persicae, 48 h, leaf, 2 days, read-out: grading of mortality, MP. Here is the method: as §1, §2, §3, §4
In another experiment the test system is Tetranychus urticae. Kind of experiment: mortality of red spider mites (TU), contact test. It is filed as in vivo, Tetranychus urticae (red spider mites - adult). Particulars: Tetranychus urticae, 72 h, French bean leaf, 3 days, read-out: grading of mortality, TU. Here is the method:
as §1, §2, §3, §4
(red spider mites - adult)

In a further experiment the test system is Chilo partellurs. Description: mortality of stem borers (CP), residual test. In kind it is in vivo, Chilo partellurs (Stem borers). Particulars: Chilo, 72 h, oil seed rape leaf, 3 days, read-out: grading of mortality, CP. As for the experimental part:
as §1, §2, §3, §4

In the case of `Cc1ccc(C=CC(C)(C)COCc2cccc(Oc3ccccc3)c2)cc1` [Compound 14, 3,3-Dimethyl-1-(4-methylphenyl)-4-(3-phenoxybenzyloxy)but-1-ene], the mortality at 500 ppm is 50 to 79% in the experiment on Nilaparvata lugens; under 50% in the experiment with Musca domestica [1]; under 50% in the experiment with Blattella germanica; 50 to 79% in the experiment on Diabrotica balteata; 80 to 100% with Heliothis viriscens; under 50% with Myzus persicae. Also, the mortality at 500 ppm in the experiment on Tetranychus urticae is under 50%; with Chilo partellurs, 80 to 100%. Moreover, the pest or weed control at 500 ppm with Musca domestica [2] is under 50%.

With `CC(C)(/C=C\c1ccccc1)COCc1ccc(F)c(Oc2ccccc2)c1` [Compound 21, 3,3-Dimethyl-1-phenyl-4-(4-fluoro-3-phenoxybenzyloxy)but-1-ene], the mortality at 100 ppm in the experiment on Nilaparvata lugens, with Musca domestica [1], in the experiment on Blattella germanica, with Diabrotica balteata, in the experiment with Heliothis viriscens and in the experiment on Myzus persicae was under 50% each time. Also, the mortality at 100 ppm is under 50% in the experiment on Tetranychus urticae and 80 to 100% with Chilo partellurs. In the experiment on Musca domestica [2], the pest or weed control at 100 ppm was under 50%.

Take `Fc1ccc(/C=C\C2(COCc3cccc(Oc4ccccc4)c3)CC2)cc1` [Compound 20, 1-[2-(4-fluorophenyl)ethen-1-yl]-1-(3-phenoxybenzyloxymethyl)cyclopropane]: the mortality at 500 ppm in the experiment on Nilaparvata lugens is under 50%; with Musca domestica [1], under 50%; in the experiment on Blattella germanica, under 50%; in the experiment with Diabrotica balteata, under 50%; with Heliothis viriscens, under 50%; in the experiment with Myzus persicae, 50 to 79%. The mortality at 500 ppm with Tetranychus urticae was under 50%; in the experiment with Chilo partellurs it was 80 to 100%. Besides, the pest or weed control at 500 ppm in the experiment with Musca domestica [2] was under 50%.

On to `CC(C)(C=Cc1cc(Cl)cc(Cl)c1)COCc1cccc(Oc2ccccc2)c1` [Compound 15, 3,3-Dimethyl-1-(3,5-dichlorophenyl)-4-(3-phenoxybenzyloxy)but-1-ene], for which the mortality at 500 ppm with Nilaparvata lugens, with Musca domestica [1], in the experiment on Blattella germanica, in the experiment with Diabrotica balteata, in the experiment on Heliothis viriscens and in the experiment with Myzus persicae was under 50% each time. Further, the results for the mortality at 500 ppm with Tetranychus urticae and with Chilo partellurs were under 50% and 80 to 100%, respectively. In addition, the pest or weed control at 500 ppm with Musca domestica [2] was under 50%.

Turning to `CC(C)(/C=C\c1ccc(F)cc1)COCc1ccc(F)c(Oc2ccccc2)c1` [Compound 5, 3,3-dimethyl-1-(4-fluorophenyl)-4-(4-fluoro-3-phenoxybenzyloxy)but-1-ene], the mortality at 500 ppm in the experiment on Nilaparvata lugens, in the experiment with Musca domestica [1], in the experiment with Blattella germanica, in the experiment with Diabrotica balteata, in the experiment on Heliothis viriscens and in the experiment on Myzus persicae was under 50% each time. The mortality at 500 ppm with Tetranychus urticae and in the experiment on Chilo partellurs was under 50% throughout. In addition, in the experiment on Musca domestica [2], the pest or weed control at 500 ppm was under 50%.

With `Clc1ccc(/C=C\C2(COCc3cccc(Oc4ccccc4)c3)CC2)cc1` [Compound 23, 1-[2-(4-chlorophenyl)ethen-1-yl]-1-(3-phenoxybenzyloxymethyl)cyclopropane], the mortality at 500 ppm in the experiment with Nilaparvata lugens is 80 to 100%; with Musca domestica [1], under 50%; with Blattella germanica, under 50%; in the experiment on Diabrotica balteata, under 50%; with Heliothis viriscens, under 50%; in the experiment on Myzus persicae it was under 50%. Further, the mortality at 500 ppm is under 50% in the experiment on Tetranychus urticae and 80 to 100% with Chilo partellurs. Besides, the pest or weed control at 500 ppm in the experiment with Musca domestica [2] was under 50%.

In the case of `CC(C)(C=Cc1ccc(F)cc1)COCc1cccc(Oc2ccccc2)c1` [Compound 11, 3,3-Dimethyl-1-(4-fluorophenyl)-4-(3-phenoxybenzyloxy)but-1-ene], the mortality at 500 ppm in the experiment on Nilaparvata lugens was 80 to 100%; in the experiment with Musca domestica [1] it was 50 to 79%; in the experiment with Blattella germanica, under 50%; in the experiment on Diabrotica balteata, 50 to 79%; with Heliothis viriscens it was 80 to 100%; in the experiment with Myzus persicae it was under 50%. Moreover, the mortality at 500 ppm is under 50% in the experiment with Tetranychus urticae and 80 to 100% in the experiment on Chilo partellurs. Moreover, the pest or weed control at 500 ppm in the experiment with Musca domestica [2] is 80 to 100%.

On to `Clc1ccc(/C=C/C2(COCc3cccc(Oc4ccccc4)c3)CC2)cc1` [Compound 22, 1-[2-(4-chlorophenyl)ethen-1-yl]-1-(3-phenoxybenzyloxymethyl)cyclopropane], for which the mortality at 500 ppm with Nilaparvata lugens was 50 to 79%; in the experiment on Musca domestica [1], under 50%; with Blattella germanica it was under 50%; in the experiment on Diabrotica balteata, under 50%; with Heliothis viriscens, under 50%; with Myzus persicae, under 50%. The mortality at 500 ppm in the experiment with Tetranychus urticae was under 50%; in the experiment on Chilo partellurs it was 80 to 100%. Besides, the pest or weed control at 500 ppm in the experiment on Musca domestica [2] is under 50%.

`Fc1ccc(/C=C/C2(COCc3cccc(Oc4ccccc4)c3)CC2)cc1` [Compound 19, 1-[2-(4-fluorophenyl)ethen-1-yl]-1-(3-phenoxybenzyloxymethyl)cyclopropane]: the mortality at 100 ppm is under 50% in the experiment on Nilaparvata lugens; under 50% in the experiment on Musca domestica [1]; under 50% with Blattella germanica; under 50% with Diabrotica balteata; 80 to 100% in the experiment with Heliothis viriscens; under 50% in the experiment with Myzus persicae. Also, the mortality at 100 ppm in the experiment with Tetranychus urticae and in the experiment with Chilo partellurs was under 50% each time. Also, the pest or weed control at 100 ppm with Musca domestica [2] was under 50%.

For the molecule `CCOc1ccc(CCC(C)(C)COCc2cccc(Oc3ccccc3)c2)cc1` [Compound 33, 3,3-Dimethyl-1-(4-ethoxyphenyl)-4-(3-phenoxybenzyloxy)butane], the mortality at 500 ppm with Nilaparvata lugens, in the experiment on Musca domestica [1], with Blattella germanica, with Diabrotica balteata, in the experiment on Heliothis viriscens and with Myzus persicae was under 50% in each case. Further, the results for the mortality at 500 ppm with Tetranychus urticae and in the experiment with Chilo partellurs were under 50% and 80 to 100%, respectively. Also, the pest or weed control at 500 ppm in the experiment with Musca domestica [2] is under 50%.

Turning to `CCOc1ccc(/C=C\C(C)(C)COCc2cccc(Oc3ccccc3)c2)cc1` [Compound 3, 3,3-Dimethyl-1-(4-ethoxyphenyl)-4-(3-phenoxybenzyloxy)but-1-ene], the mortality at 500 ppm with Nilaparvata lugens, with Musca domestica [1], in the experiment with Blattella germanica, in the experiment with Diabrotica balteata, in the experiment on Heliothis viriscens and in the experiment with Myzus persicae was under 50% throughout. In addition, the mortality at 500 ppm in the experiment with Tetranychus urticae and in the experiment with Chilo partellurs was under 50% in each case. Also, the pest or weed control at 500 ppm in the experiment on Musca domestica [2] was under 50%.

Take `CC(C)(/C=C/c1ccc(F)cc1)COCc1ccc(F)c(Oc2ccccc2)c1` [Compound 6, 3,3-dimethyl-1-(4-fluorophenyl)-4-(4-fluoro-3-phenoxybenzyloxy)but-1-ene]: the mortality at 500 ppm in the experiment on Nilaparvata lugens, with Musca domestica [1], with Blattella germanica, in the experiment with Diabrotica balteata, with Heliothis viriscens and in the experiment with Myzus persicae was 80 to 100% throughout. Also, the mortality at 500 ppm was 50 to 79% in the experiment with Tetranychus urticae and 80 to 100% in the experiment with Chilo partellurs. Further, the pest or weed control at 500 ppm with Musca domestica [2] was in the range of 80 to 100%.
